The source of these data is patent publication US12122816B2, “Long acting peptide tyrosine tyrosine (PYY) analogs and methods of use” (Intarcia Therapeutics, Inc., priority 2020, dated 2024).

The nature of data set [1]: Stability in water or saline (1 mg/ml) at 37° C., purity by LC/MS and HPLC. The format is physicochemical. The note with it: TFA salt form.
For data set [2], the target named is T1, human Y2 receptor (Homo sapiens, UniProt P49146).
T1 sequence (P49146 1-381): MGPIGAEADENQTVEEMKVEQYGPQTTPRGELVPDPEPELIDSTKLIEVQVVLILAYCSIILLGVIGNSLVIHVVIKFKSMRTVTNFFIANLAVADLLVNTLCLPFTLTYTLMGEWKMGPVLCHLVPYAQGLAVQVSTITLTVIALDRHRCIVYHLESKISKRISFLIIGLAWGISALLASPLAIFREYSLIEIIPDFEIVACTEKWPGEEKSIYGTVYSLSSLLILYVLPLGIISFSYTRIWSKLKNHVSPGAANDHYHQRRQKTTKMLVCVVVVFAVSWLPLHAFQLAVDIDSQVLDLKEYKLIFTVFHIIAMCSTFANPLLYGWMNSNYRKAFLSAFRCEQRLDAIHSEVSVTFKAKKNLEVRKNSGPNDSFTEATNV
The data set can be described thus: NPY receptor functional assay (cAMP, HEK-CNG cells, ACTOne membrane potential dye). The format is cell-based. To be noted: NPY2R pEC50, HEK-CNG cells; standard PYY(3-36); species (human or rat) not given. The essentials:
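HEK-CNG cells stably expressing each human receptor; peptides added in triplicate for 50 minutes at room temperature, with agonism read as decreased isoproterenol-induced membrane potential dye signal (final/initial read).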

Data set [3] in a line: In vitro stability in subcutaneous (SC) tissue homogenates. In kind it is in vitro ADME. The note with it: subcutaneous tissue homogenate, pH 7.4; human SC tissue homogenate 1.0 mg protein/mL, 10 mcM peptide, 37° C.; read-out: (H)SC tissue stability t½ (converted).

Usually EC50 stands for the concentration at which the effect is half-maximal. Low values mean greater potency, high ones weaker potency.

The structures appear in SMILES notation.

For `CC(C)C[C@H](NC(=O)[C@H](Cc1ccc(O)cc1)NC(=O)[C@H](Cc1c[nH]cn1)NC(=O)[C@H](CCCNC(=N)N)NC(=O)[C@H](CC(C)C)NC(=O)[C@H](CC(=O)O)NC(=O)[C@@H](CCCCNC(=O)CC[C@H](NC(=O)CC[C@H](NC(=O)CCCCCCCCCCCCCCCCCCC(=O)O)C(=O)O)C(=O)O)NC(=O)[C@H](Cc1ccc(O)cc1)NC(=O)[C@H](Cc1ccc(O)cc1)NC(=O)[C@H](CCCNC(=N)N)NC(=O)[C@H](CC(N)=O)NC(=O)[C@H](Cc1c[nH]c2ccccc12)NC(=O)[C@H](CCC(=O)O)NC(=O)[C@H](CCC(=O)O)NC(=O)[C@@H]1CCCN1C(=O)[C@H](CO)NC(=O)[C@H](C)NC(=O)[C@H](CC(=O)O)NC(=O)[C@H](CCCCN)NC(=O)CNC(=O)[C@@H]1CCCN1C(=O)[C@H](C)NC(=O)[C@H](CCC(=O)O)NC(=O)[C@@H]1CCCN1C(=O)[C@H](CCCCN)NC(=O)[C@@H]1CCCN1)C(=O)N[C@@H](CC(N)=O)C(=O)N[C@@H](Cc1c[nH]c2ccccc12)C(=O)N[C@@H](CC(C)C)C(=O)N[C@H](C(=O)N[C@@H](CCCNC(=N)N)C(=O)N[C@@H](CCC(N)=O)C(=O)N[C@@H](CCCNC(=N)N)C(=O)N[C@@H](Cc1ccccc1)C(N)=O)[C@@H](C)O` [Compound A14], the “Stability (37° C./RT, T0: Mar. 25, 2020)” value in data set [1] is on record as 94.2. In data set [2], this compound gave an EC50 of 0.0794 nM. Moreover, the half-life at 10 mcM in data set [3] is 4.5 h.
